Assay results as given in paper PMC9051119 (RSC Advances, 2020).

Columns and labels:
[1] = ref unpublished data, cited from earlier work
[2] = weakly basic APIs; cited from earlier work
[3] = Equilibrium solubility in model lipid-based formulations; conditions: for Miscibility in MC-SEDDS (MCF) / Miscibility in LC-SEDDS (LCF): result in words; for Miscibility in LC-SEDDS (LCF) / Solubility in LC-SEDDS: long chain SEDDS
[4] = Long term storage stability; conditions: >6 months at −20 °C

## C(=Cc1ccccc1)CN1CCN(C(c2ccccc2)c2ccccc2)CC1.CCCCC(CC)COC(=O)CC(C(=O)OCC(CC)CCCC)S(=O)(=O)O [Cinnarizine docusate]
[1]; long chain SEDDS
  Miscibility in LC-SEDDS: miscible
[1]; medium chain SEDDS
  Miscibility in MC-SEDDS: miscible

## C(=C\c1ccccc1)/CN1CCN(C(c2ccccc2)c2ccccc2)CC1 [Compound 1, cinnarizine]
[2]
  pKa: > 8

## C(=C\c1ccccc1)/CN1CCN(C(c2ccccc2)c2ccccc2)CC1 [Compound 1b, cinnarizine]
[3]; medium chain SEDDS
  Miscibility in MC-SEDDS (MCF): miscible

## C(=C\c1ccccc1)/CN1CCN(C(c2ccccc2)c2ccccc2)CC1 [Compound 1c, cinnarizine]
[3]; medium chain SEDDS
  Miscibility in MC-SEDDS (MCF): miscible

## C(=C\c1ccccc1)/CN1CCN(C(c2ccccc2)c2ccccc2)CC1 [Compound 1d, cinnarizine]
[3]
  Miscibility in LC-SEDDS (LCF): miscible
[3]; medium chain SEDDS
  Miscibility in MC-SEDDS (MCF): miscible

## C(=C\c1ccccc1)/CN1CCN(C(c2ccccc2)c2ccccc2)CC1 [Compound 1g, cinnarizine]
[3]; value of the main text
  Solubility in LC-SEDDS: 17 mg/g

## C(=C\c1ccccc1)/CN1CCN(C(c2ccccc2)c2ccccc2)CC1 [Compound 1h, cinnarizine]
[4]
  Crystallization after long term storage: showed signs of crystallization

## C(=C\c1ccccc1)/CN1CCN(C(c2ccccc2)c2ccccc2)CC1 [Compound 1i, cinnarizine]
[3]; medium chain SEDDS
  Miscibility in MC-SEDDS (MCF): miscible

## C(=C\c1ccccc1)/CN1CCN(C(c2ccccc2)c2ccccc2)CC1 [Compound 1j, cinnarizine]
[3]; medium chain SEDDS
  Miscibility in MC-SEDDS (MCF): miscible

## C(=C\c1ccccc1)/CN1CCN(C(c2ccccc2)c2ccccc2)CC1 [Compound 1k, cinnarizine]
[3]
  Miscibility in LC-SEDDS (LCF): miscible
[3]; medium chain SEDDS
  Miscibility in MC-SEDDS (MCF): miscible

## CCCCN(CCCC)CC(O)c1cc(Cl)cc2c1-c1ccc(Cl)cc1/C2=C/c1ccc(Cl)cc1 (stereo not shown) [Compound 2, lumefantrine]
[2]
  pKa: > 8

## CCCCN(CCCC)CC(O)c1cc(Cl)cc2c1-c1ccc(Cl)cc1/C2=C/c1ccc(Cl)cc1 (stereo not shown) [Compound 2h, lumefantrine]
[3]; compared to the free base form
  LBF solubility enhancement compared to the free base: up to 18 fold
[3]
  Miscibility in LC-SEDDS (LCF): miscible
[3]; medium chain SEDDS
  Miscibility in MC-SEDDS (MCF): miscible

## CCCCN(CCCC)CC(O)c1cc(Cl)cc2c1-c1ccc(Cl)cc1/C2=C/c1ccc(Cl)cc1 (stereo not shown) [Compound 2k, lumefantrine]
[3]; value of the main text
  Solubility in LC-SEDDS: 53 mg/g
[3]; medium chain SEDDS, value of the main text
  Solubility in MC-SEDDS: 66 mg/g
